US20180148418A1, “AMIDO-SUBSTITUTED CYCLOHEXANE DERIVATIVES” (Bayer Pharma Aktiengesellschaft, priority 2015, published 2018)

What was measured:
[1] = test system: wildtype Wnt signaling cascade; experiment: HEK293 TOP assay (Super TopFlash luciferase reporter, Wnt-3a stimulated); assay type: cell-based; details: Homo sapiens, HEK293, 16 h, HEK293 TOP reporter cells, Wnt3a at EC50, 16 hours
Method in brief: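 Compound series (50 μM down to 15 nM, 3.16-fold) diluted from DMSO 50-fold into CAFTY buffer, pH 7.4, 2 mM Ca^2+, 0.01% BSA, applied to Wnt-3a-stimulated HEK293 TopFlash and FOP reporter lines in parallel. Cells seeded 10000/well 24 h before; luciferase signal measured.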

TNKS1 = target: T1, TNKS1 (Homo sapiens, UniProt O95271); experiment: TNKS1 Assay B (auto-parsylation, [3H]-NAD+ SPA); assay type: biochemical; details: 6 nM TNKS1, auto-parsylation, over night at room temperature
T1 construct: purchased BPS Bioscience, San Diego, USA 80579 (TNKS1 Histone Ribosylation Assay Kit)
T1 sequence (O95271 1-1327): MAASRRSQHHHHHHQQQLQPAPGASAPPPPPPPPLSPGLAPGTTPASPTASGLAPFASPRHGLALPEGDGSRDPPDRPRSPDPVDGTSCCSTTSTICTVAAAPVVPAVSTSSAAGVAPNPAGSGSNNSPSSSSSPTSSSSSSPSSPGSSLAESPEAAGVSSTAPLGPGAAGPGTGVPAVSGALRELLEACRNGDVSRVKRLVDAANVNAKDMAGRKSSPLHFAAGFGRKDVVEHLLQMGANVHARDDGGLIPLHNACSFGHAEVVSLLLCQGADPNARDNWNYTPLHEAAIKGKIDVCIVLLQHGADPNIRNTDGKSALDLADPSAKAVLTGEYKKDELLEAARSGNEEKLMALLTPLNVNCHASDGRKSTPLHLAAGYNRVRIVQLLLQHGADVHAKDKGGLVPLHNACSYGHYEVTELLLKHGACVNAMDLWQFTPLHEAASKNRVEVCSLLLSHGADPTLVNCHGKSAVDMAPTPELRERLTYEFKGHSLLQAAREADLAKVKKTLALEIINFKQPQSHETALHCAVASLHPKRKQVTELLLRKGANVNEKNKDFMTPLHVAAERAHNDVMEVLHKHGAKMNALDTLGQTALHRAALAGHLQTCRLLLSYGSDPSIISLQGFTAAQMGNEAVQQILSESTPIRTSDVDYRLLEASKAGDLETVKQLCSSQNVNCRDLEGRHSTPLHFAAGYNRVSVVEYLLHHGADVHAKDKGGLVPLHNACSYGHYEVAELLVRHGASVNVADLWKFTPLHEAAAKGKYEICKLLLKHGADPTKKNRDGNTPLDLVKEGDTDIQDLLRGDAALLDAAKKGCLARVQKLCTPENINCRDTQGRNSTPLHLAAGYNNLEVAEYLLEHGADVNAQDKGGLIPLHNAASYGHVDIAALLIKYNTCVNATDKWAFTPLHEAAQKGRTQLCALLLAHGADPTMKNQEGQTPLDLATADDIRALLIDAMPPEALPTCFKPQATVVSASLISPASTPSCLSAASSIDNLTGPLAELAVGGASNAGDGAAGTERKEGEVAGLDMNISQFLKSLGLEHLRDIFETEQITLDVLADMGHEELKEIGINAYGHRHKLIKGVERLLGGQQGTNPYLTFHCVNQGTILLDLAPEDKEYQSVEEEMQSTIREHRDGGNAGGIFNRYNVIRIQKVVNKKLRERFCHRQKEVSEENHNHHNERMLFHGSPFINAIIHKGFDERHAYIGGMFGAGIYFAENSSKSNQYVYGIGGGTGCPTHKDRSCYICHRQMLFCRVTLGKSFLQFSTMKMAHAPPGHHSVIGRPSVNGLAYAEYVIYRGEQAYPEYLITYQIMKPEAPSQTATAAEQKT

IC50 [1] [nM]	IC50 (TNKS1) [nM]	SMILES
680	400	CN1CCN(c2ccc3ncc(C(=O)N[C@H]4CC[C@H](C(=O)Nc5ccc(F)cc5Cl)CC4)n3n2)CC1 [Example 49, N-{trans-4-[(2-chloro-4-fluorophenyl)carbamoyl]cyclohexyl}-6-(4-methylpiperazin-1-yl)imidazo[1,2-b]pyridazine-3-carboxamide]
6.9	10	Cc1cc(N2CC[C@]3(CC[C@@H](NC(=O)c4[nH]cnc4C(=O)NCC(F)(F)F)CC3)C2=O)c(Cl)cc1F [Example 297, N^5-[(trans)-2-(2-chloro-4-fluoro-5-methylphenyl)-1-oxo-2-azaspiro[4.5]dec-8-yl]-N^4-(2,2,2-trifluoroethyl)-1H-imidazole-4,5-dicarboxamide]
94	30	O=C(NCC1CCCO1)c1nc[nH]c1C(=O)N[C@H]1CC[C@H](C(=O)Nc2cc(F)c(F)cc2Cl)CC1 (stereo partly drawn) [Example 86, N^5-{trans-4-[(2-chloro-4,5-difluorophenyl)carbamoyl]cyclohexyl}-N^4-(tetrahydrofuran-2-ylmethyl)-1H-imidazole-4,5-dicarboxamide]
410	410	O=C(N[C@H]1CC[C@H](C(=O)Nc2ccc(F)cc2Cl)CC1)c1cnc2ccc(N3CCOCC3)nn12 [Example 48, N-{trans-4-[(2-chloro-4-fluorophenyl)carbamoyl]cyclohexyl}-6-(morpholin-4-yl)imidazo[1,2-b]pyridazine-3-carboxamide]
270	360	CNC(=O)c1[nH]cnc1C(=O)N[C@@H]1CC[C@@H](C(=O)Nc2ccc(F)cc2Cl)CC1(F)F (stereo in doubt) [Example 32, N^4-{(trans)-4-[(2-chloro-4-fluorophenyl)carbamoyl]-2,2-difluorocyclohexyl}-N^5-methyl-1H-imidazole-4,5-dicarboxamide]
220	250	COC[C@@H](C)NC(=O)c1nc[nH]c1C(=O)N[C@H]1CC[C@H](C(=O)Nc2c(F)cc(F)cc2Cl)CC1 [Example 67, N^5-{trans-4-[(2-chloro-4,6-difluorophenyl)carbamoyl]cyclohexyl}-N^4-[(2R)-1-methoxypropan-2-yl]-1H-imidazole-4,5-dicarboxamide]
4.7	6.2	Cc1cc(N2CC[C@]3(CC[C@@H](NC(=O)c4[nH]cnc4C(=O)NCCN4CCC(C)CC4)CC3)C2=O)c(Cl)cc1F [Example 290, N^5-[(trans)-2-(2-chloro-4-fluoro-5-methylphenyl)-1-oxo-2-azaspiro[4.5]dec-8-yl]-N^4-[2-(4-methylpiperidin-1-yl)ethyl]-1H-imidazole-4,5-dicarboxamide]
380	300	COCC(C)NC(=O)c1nc[nH]c1C(=O)N[C@H]1CC[C@H](C(=O)Nc2ccc(F)cc2Cl)CC1 (stereo partly drawn) [Example 82, N^5-{trans-4-[(2-chloro-4-fluorophenyl)carbamoyl]cyclohexyl}-N^4-(1-methoxypropan-2-yl)-1H-imidazole-4,5-dicarboxamide]
1200	1200	O=C(NCC1CCCO1)c1nc[nH]c1C(=O)N[C@H]1CC[C@H](C(=O)Nc2cc(N3CCOCC3)ccc2Cl)CC1 (stereo partly drawn) [Example 89, N^5-(trans-4-{[2-chloro-5-(morpholin-4-yl)phenyl]carbamoyl}cyclohexyl)-N^4-(tetrahydrofuran-2-ylmethyl)-1H-imidazole-4,5-dicarboxamide]
1.8	8.7	CCNC(=O)c1nc[nH]c1C(=O)N[C@H]1CC[C@@]2(CCN(c3cc(C)c(F)cc3Cl)C2=O)CC1 [Example 289, N^5-[(trans)-2-(2-chloro-4-fluoro-5-methylphenyl)-1-oxo-2-azaspiro[4.5]dec-8-yl]-N^4-ethyl-1H-imidazole-4,5-dicarboxamide]
35	30	CNC(=O)c1nc[nH]c1C(=O)N[C@H]1CC[C@H](C(=O)Nc2c(Br)cc(F)c(F)c2F)CC1 [Example 27, N^5-{trans-4-[(6-bromo-2,3,4-trifluorophenyl)carbamoyl]cyclohexyl}-N^4-methyl-1H-imidazole-4,5-dicarboxamide]
9.5	12	COCCNC(=O)c1nc[nH]c1C(=O)N[C@H]1CC[C@@]2(CCN(c3cc(C)c(F)cc3Cl)C2=O)CC1 [Example 334, N^5-[(trans)-2-(2-chloro-4-fluoro-5-methylphenyl)-1-oxo-2-azaspiro[4.5]dec-8-yl]-N^4-(2-methoxyethyl)-1H-imidazole-4,5-dicarboxamide]
240	610	COC[C@H](C)NC(=O)c1nc[nH]c1C(=O)N[C@H]1CC[C@H](C(=O)Nc2ccc(F)cc2Cl)CC1 [Example 83, N^5-{trans-4-[(2-chloro-4-fluorophenyl)carbamoyl]cyclohexyl}-N^4-[(2S)-1-methoxypropan-2-yl]-1H-imidazole-4,5-dicarboxamide]
150	22	CN(C)c1ccc2ncc(C(=O)N[C@H]3CC[C@H](C(=O)Nc4ccc(F)cc4Cl)CC3)n2n1 [Example 52, N-{trans-4-[(2-chloro-4-fluorophenyl)carbamoyl]cyclohexyl}-6-(dimethylamino)imidazo[1,2-b]pyridazine-3-carboxamide]
63	13	O=C(NCCN1CC2(CCO2)C1)c1nc[nH]c1C(=O)N[C@H]1CC[C@H](C(=O)Nc2ccc(F)cc2Cl)CC1 [Example 25, N^5-{trans-4-[(2-chloro-4-fluorophenyl)carbamoyl]cyclohexyl}-N^4-[2-(1-oxa-6-azaspiro[3.3]hept-6-yl)ethyl]-1H-imidazole-4,5-dicarboxamide]
7500	350	COC(=O)c1cc(C)nc2c(C(=O)N[C@H]3CC[C@H](C(=O)Nc4ccc(F)cc4Cl)CC3)cnn12 [Example 352, methyl 3-({trans-4-[(2-chloro-4-fluorophenyl)carbamoyl]cyclohexyl}carbamoyl)-5-methylpyrazolo[1,5-a]pyrimidine-7-carboxylate]
230	94	CC(C)OCCNC(=O)c1nc[nH]c1C(=O)N[C@H]1CC[C@H](C(=O)Nc2ccc(F)cc2Cl)CC1 [Example 76, N^5-{trans-4-[(2-chloro-4-fluorophenyl)carbamoyl]cyclohexyl}-N^4-(2-isopropoxyethyl)-1H-imidazole-4,5-dicarboxamide]
2400	3600	CNC(=O)c1nc[nH]c1C(=O)N[C@H]1CC[C@H](C(=O)Nc2cc(N3CCOCC3)ccc2Cl)CC1 [Example 88, N^5-(trans-4-{[2-chloro-5-(morpholin-4-yl)phenyl]carbamoyl}cyclohexyl)-N^4-methyl-1H-imidazole-4,5-dicarboxamide]
12000	> 10000	Cc1cc(C2CC2)nc2c(C(=O)N[C@H]3CC[C@H](C(=O)Nc4ccc(F)cc4Cl)CC3)cnn12 [Example 62, N-{trans-4-[(2-chloro-4-fluorophenyl)carbamoyl]cyclohexyl}-5-cyclopropyl-7-methylpyrazolo[1,5-a]pyrimidine-3-carboxamide]
120	120	Cc1cc(C)n2ncc(C(=O)NC3CCC(C(=O)Nc4ccc(F)cc4Cl)CC3C)c2n1 (stereo not drawn) [Example 42, N-{4-[(2-chloro-4-fluorophenyl)carbamoyl]-2-methylcyclohexyl}-5,7-dimethylpyrazolo[1,5-a]pyrimidine-3-carboxamide]
150	100	COC(C)CNC(=O)c1nc[nH]c1C(=O)N[C@H]1CC[C@H](C(=O)Nc2ccc(F)cc2Cl)CC1 (stereo partly drawn) [Example 81, N^5-{trans-4-[(2-chloro-4-fluorophenyl)carbamoyl]cyclohexyl}-N^4-(2-methoxypropyl)-1H-imidazole-4,5-dicarboxamide]
